# Biological target: T1, human MGL from HeLa cells (Homo sapiens, UniProt Q99685)
# T1 construct: combining endogenously expressed MGL from HeLa cells with test compounds; endogenous in cells; host or cells: HeLa cells / cell homogenates
# T1 sequence (Q99685 1-303): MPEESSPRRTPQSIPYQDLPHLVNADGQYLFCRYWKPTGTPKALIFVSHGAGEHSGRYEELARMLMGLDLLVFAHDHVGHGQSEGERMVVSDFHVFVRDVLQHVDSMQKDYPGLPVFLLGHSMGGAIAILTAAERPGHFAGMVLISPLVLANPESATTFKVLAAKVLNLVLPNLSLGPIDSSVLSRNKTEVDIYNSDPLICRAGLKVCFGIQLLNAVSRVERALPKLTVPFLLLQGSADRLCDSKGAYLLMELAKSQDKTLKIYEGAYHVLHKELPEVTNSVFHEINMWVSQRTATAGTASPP
# Assay: In vitro MGL activity assay: [glycerol-1,3-3H]-oleyl glycerol cleavage by MGL from HeLa cells
# Format: biochemical
# Conditions: 300 nM [Glycerol-1,3-3H]-oleyl glycerol, one hour incubation
# From the text: MGL is the predominant hydrolase in HeLa cells/cell homogenates.
row,SMILES,IC50 [nM]
1,"Cn1nc2c(c1-c1ccccc1)CCN(C(=O)c1ccccc1-n1cncn1)C2 [Example 18, (2-(1H-1,2,4-Triazol-1-yl)phenyl)(2-methyl-3-phenyl-2,4,5,7-tetrahydro-6H-pyrazolo[3,4-c]pyridin-6-yl)methanone]",671
2,"Cc1c(C(=O)N2CCc3c(nn(C)c3-c3ccccc3)C2)cccc1N1CCOCC1 [Example 19, (2-Methyl-3-morpholinophenyl)(2-methyl-3-phenyl-2,4,5,7-tetrahydro-6H-pyrazolo[3,4-c]pyridin-6-yl)methanone]",4820
3,"Cn1ncc(C(=O)N2CCc3c(nn(C)c3-c3ccccc3)C2)c1Cl [Example 20, (5-Chloro-1-methyl-1H-pyrazol-4-yl)(2-methyl-3-phenyl-2,4,5,7-tetrahydro-6H-pyrazolo[3,4-c]pyridin-6-yl)methanone]",2090
4,"Cn1nc2c(c1-c1ccccc1)CCN(C(=O)c1cnn(C)c1C1CC1)C2 [Example 22, (5-Cyclopropyl-1-methyl-1H-pyrazol-4-yl)(2-methyl-3-phenyl-2,4,5,7-tetrahydro-6H-pyrazolo[3,4-c]pyridin-6-yl)methanone]",683
5,"Cn1nc2c(c1-c1ccccc1)CCN(C(=O)c1ncn(-c3ccccc3)n1)C2 [Example 23, (2-Methyl-3-phenyl-2,4,5,7-tetrahydro-6H-pyrazolo[3,4-c]pyridin-6-yl)(1-phenyl-1H-1,2,4-triazol-3-yl)methanone]",847
6,"Cn1nc2c(c1-c1ccccc1)CCN(C(=O)c1cccc(OC(F)F)n1)C2 [Example 24, (6-(Difluoromethoxy)pyridin-2-yl)(2-methyl-3-phenyl-2,4,5,7-tetrahydro-6H-pyrazolo[3,4-c]pyridin-6-yl)methanone]",2560
7,"Cn1nc2c(c1-c1ccccc1)CCN(C(=O)c1cccc(OC(F)(F)F)n1)C2 [Example 25, (2-Methyl-3-phenyl-2,4,5,7-tetrahydro-6H-pyrazolo[3,4-c]pyridin-6-yl)(6-(trifluoromethoxy)pyridin-2-yl)methanone]",2430
8,"Cn1nc2c(c1-c1ccccc1)CCN(C(=O)c1cccc3c1NC(=O)CO3)C2 [Example 26, 5-(2-Methyl-3-phenyl-4,5,6,7-tetrahydro-2H-pyrazolo[3,4-c]pyridine-6-carbonyl)-2H-benzo[b][1,4]oxazin-3(4H)-one]",2460
9,"CN1CCOc2cc(C(=O)N3CCc4c(nn(C)c4-c4ccccc4)C3)ccc21 [Example 27, (4-Methyl-3,4-dihydro-2H-benzo[b][1,4]oxazin-7-yl)(2-methyl-3-phenyl-2,4,5,7-tetrahydro-6H-pyrazolo[3,4-c]pyridin-6-yl)methanone]",290
10,"Cn1nc2c(c1-c1ccccc1)CCN(C(=O)c1cccc3c1OCO3)C2 [Example 28, Benzo[d][1,3]dioxol-4-yl(2-methyl-3-phenyl-2,4,5,7-tetrahydro-6H-pyrazolo[3,4-c]pyridin-6-yl)methanone]",4000
11,"Cn1nc2c(c1-c1ccccc1)CCN(C(=O)c1ccc3c(c1)OCO3)C2 [Example 29, Benzo[d][1,3]dioxol-5-yl(2-methyl-3-phenyl-2,4,5,7-tetrahydro-6H-pyrazolo[3,4-c]pyridin-6-yl)methanone]",1950
12,"Cn1nc2c(c1-c1ccccc1)CCN(C(=O)c1cccc3c1OC(F)(F)O3)C2 [Example 30, (2,2-Difluorobenzo[d][1,3]dioxol-4-yl)(2-methyl-3-phenyl-2,4,5,7-tetrahydro-6H-pyrazolo[3,4-c]pyridin-6-yl)methanone]",1040
13,"Cn1nc2c(c1-c1ccccc1)CCN(C(=O)c1cc3[nH]ccc3s1)C2 [Example 31, (2-Methyl-3-phenyl-2,4,5,7-tetrahydro-6H-pyrazolo[3,4-c]pyridin-6-yl)(4H-thieno[3,2-b]pyrrol-2-yl)methanone]",1230
14,"Cc1nc2sccn2c1C(=O)N1CCc2c(nn(C)c2-c2ccccc2)C1 [Example 32, (2-Methyl-3-phenyl-2,4,5,7-tetrahydro-6H-pyrazolo[3,4-c]pyridin-6-yl)(6-methylimidazo[2,1-b]thiazol-5-yl)methanone]",1090
15,"Cn1nc2c(c1-c1ccccc1)CCN(C(=O)c1cccc3ccoc13)C2 [Example 33, Benzofuran-7-yl(2-methyl-3-phenyl-2,4,5,7-tetrahydro-6H-pyrazolo[3,4-c]pyridin-6-yl)methanone]",89.9
16,"Cn1nc2c(c1-c1ccccc1)CCN(C(=O)c1cccc3occc13)C2 [Example 34, Benzofuran-4-yl(2-methyl-3-phenyl-2,4,5,7-tetrahydro-6H-pyrazolo[3,4-c]pyridin-6-yl)methanone]",300
17,"Cn1nc2c(c1-c1ccccc1)CCN(C(=O)c1ccc3occc3c1)C2 [Example 35, Benzofuran-5-yl(2-methyl-3-phenyl-2,4,5,7-tetrahydro-6H-pyrazolo[3,4-c]pyridin-6-yl)methanone]",482
18,"Cn1nc2c(c1-c1ccccc1)CCN(C(=O)c1coc3ccccc13)C2 [Example 36, Benzofuran-3-yl(2-methyl-3-phenyl-2,4,5,7-tetrahydro-6H-pyrazolo[3,4-c]pyridin-6-yl)methanone]",750
19,"Cn1nc2c(c1-c1ccccc1)CCN(C(=O)c1cccc3ccsc13)C2 [Example 37, Benzo[b]thiophen-7-yl(2-methyl-3-phenyl-2,4,5,7-tetrahydro-6H-pyrazolo[3,4-c]pyridin-6-yl)methanone]",47.8
20,"Cn1nc2c(c1-c1ccccc1)CCN(C(=O)c1cccc3sccc13)C2 [Example 38, Benzo[b]thiophen-4-yl(2-methyl-3-phenyl-2,4,5,7-tetrahydro-6H-pyrazolo[3,4-c]pyridin-6-yl)methanone]",68
21,"Cn1nc2c(c1-c1ccccc1)CCN(C(=O)c1ccc3sccc3c1)C2 [Example 39, Benzo[b]thiophen-5-yl(2-methyl-3-phenyl-2,4,5,7-tetrahydro-6H-pyrazolo[3,4-c]pyridin-6-yl)methanone]",136
22,"Cn1nc2c(c1-c1ccccc1)CCN(C(=O)c1csc3ccccc13)C2 [Example 40, Benzo[b]thiophen-3-yl(2-methyl-3-phenyl-2,4,5,7-tetrahydro-6H-pyrazolo[3,4-c]pyridin-6-yl)methanone]",141
23,"Cn1nc2c(c1-c1ccccc1)CCN(C(=O)c1sc3ccccc3c1Cl)C2 [Example 41, (3-Chlorobenzo[b]thiophen-2-yl)(2-methyl-3-phenyl-2,4,5,7-tetrahydro-6H-pyrazolo[3,4-c]pyridin-6-yl)methanone]",64.6
24,"Cn1nc2c(c1-c1ccccc1)CCN(C(=O)c1cccc3[nH]ccc13)C2 [Example 42, (1H-Indol-4-yl)(2-methyl-3-phenyl-2,4,5,7-tetrahydro-6H-pyrazolo[3,4-c]pyridin-6-yl)methanone]",23.6
25,"Cn1nc2c(c1-c1ccccc1)CCN(C(=O)c1ccc3[nH]ccc3c1)C2 [Example 43, (1H-Indol-5-yl)(2-methyl-3-phenyl-2,4,5,7-tetrahydro-6H-pyrazolo[3,4-c]pyridin-6-yl)methanone]",64.7
26,"Cn1nc2c(c1-c1ccccc1)CCN(C(=O)c1c[nH]c3ccccc13)C2 [Example 44, (1H-Indol-3-yl)(2-methyl-3-phenyl-2,4,5,7-tetrahydro-6H-pyrazolo[3,4-c]pyridin-6-yl)methanone]",319
27,"Cn1nc2c(c1-c1ccccc1)CCN(C(=O)c1cccc3cc[nH]c13)C2 [Example 45, (1H-Indol-7-yl)(2-methyl-3-phenyl-2,4,5,7-tetrahydro-6H-pyrazolo[3,4-c]pyridin-6-yl)methanone]",1460
